PubChem BioAssay AID328 (DTP/NCI, 2004)
Several values for one entry are separate records, joined by “and”; a condition that tells them apart may be missing. Equal entries are not always repeated. Inconclusive results and toxic doses are left out. Rule for the calls: active = survival T/C of 150% or more; inactive = T/C below 125% in these data.

Test system: BDF1 mice, P388 leukemia ip, median survival T/C
Experiment: NCI In Vivo Anticancer Drug Screen. Data for tumor model P388 Leukemia (intraperitoneal) in B6D2F1 (BDF1) mice
Details: endpoint: median survival time, higher = longer survival
Procedure, shortened: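 In tumour-bearing mice, survival after compound treatment is set against the vehicle group and given as a quotient.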

[1] = dose: 25.0 mg/kg/injection, schedule: Q01DX009 (ip), vehicle: water
[2] = dose: 50.0 mg/kg/injection, schedule: Q04DX003 (ip), vehicle: Klucel (hydroxypropylcellulose) (HPC)
[3] = dose: 100.0 mg/kg/injection, schedule: Q04DX003 (ip), vehicle: Klucel (hydroxypropylcellulose) (HPC)
[4] = dose: 200.0 mg/kg/injection, schedule: Q04DX003 (ip), vehicle: Klucel (hydroxypropylcellulose) (HPC)
[5] = dose: 400.0 mg/kg/injection, schedule: Q04DX003 (ip), vehicle: Klucel (hydroxypropylcellulose) (HPC)
[6] = dose: 50.0 mg/kg/injection, schedule: Q01DX009 (ip), vehicle: saline with Tween-80
[7] = dose: 100.0 mg/kg/injection, schedule: Q01DX009 (ip), vehicle: saline with Tween-80

Measured: T/C

CCCC1CC[N-]CC1.CCCC1CC[N-]CC1.[Cl][Pd][Cl]
inactive: dose: 12.5 mg/kg/injection, schedule: Q04DX003 (ip), vehicle: water 95 % of control | [1] 114 % of control | dose: 50.0 mg/kg/injection, schedule: Q01DX009 (ip), vehicle: water 114 % of control | dose: 100.0 mg/kg/injection, schedule: Q04DX003 (ip), vehicle: water 90 % of control and 112 % of control and 120 % of control | dose: 200.0 mg/kg/injection, schedule: Q04DX003 (ip), vehicle: water 95 % of control and 99 % of control and 120 % of control | dose: 300.0 mg/kg/injection, schedule: Q04DX003 (ip), vehicle: water 96 % of control

OCCNCCNc1ccnc2cc(Cl)ccc12
inactive: dose: 12.5 mg/kg/injection, schedule: Q01DX009 (ip), vehicle: saline 102 % of control | dose: 25.0 mg/kg/injection, schedule: Q01DX009 (ip), vehicle: saline 115 % of control | dose: 50.0 mg/kg/injection, schedule: Q01DX009 (ip), vehicle: saline 116 % of control | dose: 100.0 mg/kg/injection, schedule: Q01DX009 (ip), vehicle: saline 118 % of control

O=C1c2ccccc2C(=O)N1CC[P+](c1ccc(Cl)cc1)(c1ccc(Cl)cc1)c1ccc(Cl)cc1
inactive: dose: 0.78 mg/kg/injection, schedule: Q01DX009 (ip), vehicle: water 103 % of control | dose: 1.56 mg/kg/injection, schedule: Q01DX009 (ip), vehicle: water 103 % of control | dose: 3.13 mg/kg/injection, schedule: Q01DX009 (ip), vehicle: water 103 % of control | dose: 6.25 mg/kg/injection, schedule: Q01DX009 (ip), vehicle: water 110 % of control | dose: 12.5 mg/kg/injection, schedule: Q01DX009 (ip), vehicle: water 103 % of control | [1] 103 % of control

CCCCS(=N)(=O)CC[C@H](N)C(=O)O (stereo partly drawn)
inactive: dose: 50.0 mg/kg/injection, schedule: Q01DX005 (ip), vehicle: saline 96 % of control | dose: 100.0 mg/kg/injection, schedule: Q01DX005 (ip), vehicle: saline 96 % of control | dose: 200.0 mg/kg/injection, schedule: Q01DX005 (ip), vehicle: saline 91 % of control | dose: 400.0 mg/kg/injection, schedule: Q01DX005 (ip), vehicle: saline 91 % of control

COc1cc(OC)c(OC)cc1/C=C/c1ccc2ccccc2n1
inactive: dose: 100.0 mg/kg/injection, schedule: Q04DX003 (ip), vehicle: saline with Tween-80 100 % of control | dose: 200.0 mg/kg/injection, schedule: Q04DX003 (ip), vehicle: saline with Tween-80 88 % of control | dose: 400.0 mg/kg/injection, schedule: Q04DX003 (ip), vehicle: saline with Tween-80 88 % of control

O=C(O)c1ccc(O)c(=O)cc1
inactive: dose: 12.5 mg/kg/injection, schedule: Q01DX001 (ip), vehicle: saline with Tween-80 102 % of control

C=CCNC(=S)Nc1cc(Cl)ccc1C
inactive: [2] 95 % of control | [3] 100 % of control | [4] 109 % of control

CC[C@@]1(O)C[C@H](OC2CC(N(C)C)C(OC3CC4OC5CC(=O)C(C)OC5OC4C(C)O3)C(C)O2)c2c(cc3c(c2O)C(=O)c2c(O)cccc2C3=O)[C@H]1C(=O)OC (stereo partly drawn)
inactive: dose: 0.25 mg/kg/injection, schedule: Q01DX009 (ip), vehicle: water 109 % of control | dose: 4.0 mg/kg/injection, schedule: Q01DX009 (ip), vehicle: water 86 % of control

Cc1cc2c([nH]c1=O)C(=O)c1c(O)cccc1C2=O
inactive: dose: 2.5 mg/kg/injection, schedule: Q01DX009 (ip), vehicle: Klucel (hydroxypropylcellulose) (HPC) 103 % of control | dose: 5.0 mg/kg/injection, schedule: Q01DX009 (ip), vehicle: Klucel (hydroxypropylcellulose) (HPC) 108 % of control | dose: 10.0 mg/kg/injection, schedule: Q01DX009 (ip), vehicle: Klucel (hydroxypropylcellulose) (HPC) 103 % of control | dose: 20.0 mg/kg/injection, schedule: Q01DX009 (ip), vehicle: Klucel (hydroxypropylcellulose) (HPC) 104 % of control | dose: 40.0 mg/kg/injection, schedule: Q01DX009 (ip), vehicle: Klucel (hydroxypropylcellulose) (HPC) 95 % of control | dose: 80.0 mg/kg/injection, schedule: Q01DX009 (ip), vehicle: Klucel (hydroxypropylcellulose) (HPC) 115 % of control

Cc1cc(C)cc(CCc2cc(C)cc(C)c2)c1
inactive: [3] 100 % of control | dose: 200.0 mg/kg/injection, schedule: Q01DX009 (ip), vehicle: Klucel (hydroxypropylcellulose) (HPC) 109 % of control | [4] 90 % of control | dose: 400.0 mg/kg/injection, schedule: Q01DX009 (ip), vehicle: Klucel (hydroxypropylcellulose) (HPC) 100 % of control | [5] 95 % of control

CC(C)N(C(C)C)S(=O)(=O)c1ccccc1C(O)(c1ccccc1)c1ccccc1
inactive: dose: 25.0 mg/kg/injection, schedule: Q01DX009 (ip), vehicle: saline with Tween-80 90 % of control | [6] 86 % of control | [7] 90 % of control

ClC(c1ccccc1)C1(Br)C=c2ccccc2=C1 (stereo not drawn)
inactive: dose: 50.0 mg/kg/injection, schedule: Q01DX009 (ip), vehicle: Klucel (hydroxypropylcellulose) (HPC) 95 % of control | [2] 95 % of control | dose: 100.0 mg/kg/injection, schedule: Q01DX009 (ip), vehicle: Klucel (hydroxypropylcellulose) (HPC) 90 % of control | [3] 91 % of control | [4] 100 % of control

CCCCCCCCCCCCCCCCCC(N)=O
inactive: [3] 90 % of control | [4] 95 % of control | [5] 100 % of control

NOc1ccc([N+](=O)[O-])cc1[N+](=O)[O-]
inactive: dose: 6.25 mg/kg/injection, schedule: Q01DX009 (ip), vehicle: Klucel (hydroxypropylcellulose) (HPC) 115 % of control | dose: 12.5 mg/kg/injection, schedule: Q01DX009 (ip), vehicle: Klucel (hydroxypropylcellulose) (HPC) 95 % of control | dose: 16.5 mg/kg/injection, schedule: Q01DX009 (ip), vehicle: Klucel (hydroxypropylcellulose) (HPC) 113 % of control | dose: 25.0 mg/kg/injection, schedule: Q01DX009 (ip), vehicle: Klucel (hydroxypropylcellulose) (HPC) 103 % of control and 113 % of control

CCCN(CCC)CC(O)c1cc2c(Cl)cc(Cl)cc2c2cc(C(F)(F)F)ccc12 (stereo not drawn)
inactive: [6] 100 % of control | [7] 100 % of control | dose: 200.0 mg/kg/injection, schedule: Q01DX009 (ip), vehicle: saline with Tween-80 106 % of control
